Structures can show the parent of a compound that is named as a salt.
What was measured:
rat hepatocytes = test: Rat hepatocyte metabolism (metabolic stability); type: in vitro ADME; conditions: after 3 h
Protocol: (§1) 2. Rat Hepatocyte Metabolism
(§2) The quantity of compound remaining after a fixed period of time was then determined using mass spectroscopy.
(§3) Thus in one such test the compound of Example 1 was compared with a related compound particularly described in International Patent Specification No. WO94/14742 in which the 4-fluorobenzylurea group is replaced by a hydrogen atom (i.e. (L^1)n Ar' above is a hydrogen atom). After 3 h the percentage of each compound remaining was: […]

[1] = Rat hepatocyte metabolism (metabolic stability); type: in vitro ADME; conditions: rat hepatocytes, after 3 h, mass spectroscopy; read-out: percentage of compound remaining
Protocol: as §1, §2, §3

[2] = target: T1, Recombinant Human PDE IVA (Homo sapiens, UniProt P27815); test: Isolated recombinant human PDE IVA enzyme inhibition; type: biochemical; conditions: 0.1 μM [^3 H]-cAMP, pH 7.5, 30° C.
T1 construct: made in house; host or cells: yeast (inducible vector)
T1 sequence (P27815 whole entry): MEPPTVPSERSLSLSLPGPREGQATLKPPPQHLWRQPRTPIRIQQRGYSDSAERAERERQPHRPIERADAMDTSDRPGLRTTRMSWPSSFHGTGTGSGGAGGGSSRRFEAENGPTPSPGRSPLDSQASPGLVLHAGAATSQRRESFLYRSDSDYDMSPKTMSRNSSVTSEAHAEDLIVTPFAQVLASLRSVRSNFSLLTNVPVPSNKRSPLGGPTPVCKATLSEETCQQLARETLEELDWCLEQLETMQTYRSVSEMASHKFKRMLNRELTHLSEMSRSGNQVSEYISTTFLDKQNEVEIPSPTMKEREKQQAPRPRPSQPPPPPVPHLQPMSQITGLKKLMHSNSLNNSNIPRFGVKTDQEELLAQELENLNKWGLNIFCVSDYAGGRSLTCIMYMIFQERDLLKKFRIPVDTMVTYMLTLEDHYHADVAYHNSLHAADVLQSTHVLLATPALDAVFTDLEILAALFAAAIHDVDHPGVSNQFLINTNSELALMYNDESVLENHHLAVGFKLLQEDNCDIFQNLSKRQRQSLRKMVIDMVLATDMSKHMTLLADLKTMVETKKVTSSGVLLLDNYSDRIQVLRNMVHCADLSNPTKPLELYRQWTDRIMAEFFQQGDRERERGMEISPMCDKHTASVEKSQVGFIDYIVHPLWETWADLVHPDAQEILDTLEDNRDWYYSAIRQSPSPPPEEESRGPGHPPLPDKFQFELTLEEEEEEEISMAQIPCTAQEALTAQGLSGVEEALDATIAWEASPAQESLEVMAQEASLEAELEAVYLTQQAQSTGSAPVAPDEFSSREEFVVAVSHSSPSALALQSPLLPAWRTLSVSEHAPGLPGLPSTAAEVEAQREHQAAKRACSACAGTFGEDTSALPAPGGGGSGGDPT
Protocol: Isolated Recombinant Human PDE IVA Enzyme
The enzymes were purified to isoenzyme homogeneity using standard chromatographic techniques.
Phosphodiesterase activity was assayed as follows. The reaction was conducted in 150 μl of standard mixture containing (final concentrations): 50 mM 2-[[tris(hydroxymethyl)methyl]amino]-1-ethanesulphonic acid (TES) --NaOH buffer (pH 7.5), 10 mM MgCl2, 0.1 μM [^3 H]-cAMP and vehicle or various concentrations of the test compounds. The reaction was initiated by addition of enzyme and conducted at 30° C. for between 5 to 30 min. The reaction was terminated by addition of 50 μl 2% trifluoroacetic acid containing [^14 C]-5'AMP for determining recovery of the product. An aliquot of the sample was then applied to a column of neutral alumina and the [^3 H]-cAMP eluted with 10 ml 0.1 TES-NaOH buffer (pH8). The [^3 H]-5'-AMP product was eluted with 2 ml 2M NaOH into a scintillation vial containing 10 ml of scintillation cocktail. Recovery of [^3 H]-5'AMP was determined using the [^14 C]-5'AMP and all assays were conducted in the linear range of the reaction. Results were expressed as IC50 values.

percentage of compound remaining (rat hepatocytes; mass spectroscopy, listed as compound of the invention, 180 min) | remaining at 3 h [1] [%] | extent of metabolism (in words) (rat hepatocytes) | SMILES | IC50 [2] [nM]
over 80% | > 80 |  | COc1ccc([C@H](Cc2ccncc2)c2ccc(NC(=O)NCc3ccc(F)cc3)cc2)cc1OC1CCCC1 [Example 1, (R)-N-[4-{1-(3-cyclopentyloxy-4-methoxyphenyl)-2-(4-pyridyl)ethyl}-phenyl]-N'-(4-fluorobenzyl) urea] | 23
 |  |  | COc1ccc([C@H](Cc2ccncc2)c2ccc(NS(=O)(=O)Cc3ccccc3)cc2)cc1OC1CCCC1 [Example 2, (R)-4-{2-(3-cyclopentyloxy-4-methoxyphenyl)-2-[4-(benzylsulphonylamino)phenyl]ethyl}pyridine hydrochloride] | 7.5
 | 6 | extensively metabolised | COc1ccc([C@H](Cc2ccncc2)c2ccccc2)cc1OC1CCCC1 [WO94/14732 comparison compound, reference compound] | 

Reference: US5798373A, “Tri-substituted phenyl derivatives useful as PDE IV inhibitors” (Celltech Therapeutics, Limited, priority 1995, dated 1998)
